{"source": "patent US20170298056A1", "about": "“SMALL MOLECULE INHIBITORS OF HIV-1 ENTRY AND METHODS OF USE THEREOF” (Dana-Farber Cancer Institute, Inc., priority 2014, published 2017)", "key": {"Cf2Th-CD4/CXCR4 cells": {"system": "Cf2Th-CD4/CXCR4 cells", "test": "Viability assay (CellTiterGlo), CD4/CXCR4-expressing target cells", "format": "cell-based", "description": "Viability Assay. As part of the secondary screen, cells were incubated for ˜20 hours in 384-well plates in a final volume of 45 μl growth medium at 37° C. The plate was equilibrated to room temperature, 15 μl of CellTiterGlo (Promega) was added to each well and luminescence was measured as described above. The viability assay with 18A was done in parallel to the viral infection assay for the same length of time. 18A was diluted using an HP D300 Digital Dispenser in a 96-well B&W isoplate and cells were added. After incubation of 26-30 hours (Cf2Th cells) or 40-44 hours (PBMC). 30 μl (Cf2Th cells) or 100 μl (PBMC) of CellTiterGlo was added and luminescence was measured as described above."}, "[1]": {"system": "HXBc2-YU2 Chimeras (CCR5-tropic)", "test": "Viral infection assay, HXBc2-YU2 chimeras (CCR5-tropic)", "format": "cell-based, HIV-1", "description": "(§1) Production of recombinant HIV-1 expressing luciferase. […] After 48 hours, the supernatant was collected, buffered with 50 mM Hepes pH 7.4 (final concentration) and centrifuged for 5 minutes at 750×g and 4° C. The virus-containing supernatant was used directly or frozen at −80° C.\n(§2) Viral infection assay. Each test compound was serially diluted in DMSO in a 96-well B&W isoplate (PerkinElmer, Boston, Mass.) using an HP D300 Digital Dispenser, to a final volume of 450 nl. DMSO was used as a control. Viruses pseudotyped with a specific Env were added to each well and incubated briefly at room temperature. Cf2Th-CD4/CCR5 cells were detached with StemPro Accutase Cell Dissociation Reagent (Invitrogen, cat #A11105-01), washed once, and 5000 cells were added to each well. […] Following incubation, the medium was aspirated and cells were lysed with 30 μl of Passive Lysis Buffer (Promega, cat #E1941). The activity of the firefly luciferase, which was used as a reporter protein in the system, was measured with a Centro LB 960 luminometer (Berthold Technologies, Oak Ridge, Tenn.). One hundred microliters of assay buffer (15 mM MgSO4, 15 mM KH2PO4/K2HPO4 pH 7.8, 1 mM ATP and 1 mM DTT) was injected to each well, followed by a 50 μl injection of 1 mM Dluciferin potassium salt (BD Pharmingen, San Jose, Calif.); luminescence was measured for 2 sec. […]"}, "[2]": {"system": "cell-cell fusion mediated by HIV-1JR-FL and HIV-1ADS Envs", "test": "Cell-cell fusion assay", "format": "cell-based", "description": "H-JRFL#1336 (effector) and H-Fluc4 (control) cells were grown in DMEM containing 10% FBS, 100 μg/ml streptomycin, 100 units/ml penicillin, 200 μg/ml G418, 1 μg/ml puromycin and 2 μg/ml doxycycline. H-JRFL#13 cells carry an HIV-1JR-FL env gene that is induced by growing the cells in the absence of doxycycline (Tet-Off expression system). H-Fluc4 cells, which carry a firefly luciferase gene that is induced in the absence of doxycycline, were used as specificity controls. Both cell lines were derived from HeLa cells and constitutively express the tetracycline-regulated transactivator (Tet-Off expression system). […]\nH-JRFL#13 or H-FLuc4 cells were washed thrice, detached with StemPro Accutase, centrifuged at 200×g for 6 minutes at 10° C. and seeded in DMEM containing 10% tetracycline-approved FBS, 100 μg/ml streptomycin, 100 units/ml penicillin, 100 μg/ml G418, 1 μg/ml puromycin and without Phenol Red. […] Firefly luciferase activity was measured using an EnVision Multilabel Plate Reader (PerkinElmer, Boston, Mass.). […]\nTo identify new molecules that potentially affect HIV-1 entry, a cell-cell fusion assay that mimics the entry of HIV-1 into cells was established (FIG. 1a). The assay uses a firefly luciferase (F-luc) readout to measure the fusion of HeLa effector cells that express the Envs from a primary HIV-1 strain and target cells coexpressing the CD4 and CCR5 receptors. […]"}, "[3]": {"system": "all CCR5-using HIV-1 isolates", "test": "Viral infection assay, panel of CCR5-using HIV-1 isolates", "format": "cell-based", "conditions": "Cf2Th-CD4/CCR5 cells", "description": "as §1, §2"}, "HIV-1MN27": {"system": "HIV-1MN27", "test": "Viral infection assay, CXCR4-tropic virus, Cf2Th-CD4/CXCR4 cells", "format": "cell-based", "conditions": "HIV-1MN27, Cf2Th cells expressing CD4 and CXCR4"}}, "note": "Like-named read-outs stand apart in the source and are kept apart here."}
{"smiles": "O=C(N/N=C/c1ccc(O)cc1)Nc1cccc2nsnc12", "note": "[Compound 18A]", "values": [{"measurement": "CC50", "setting": "Cf2Th-CD4/CXCR4 cells", "result": 63, "unit": "µM"}, {"measurement": "IC50", "setting": "[1]; HXBc2 (YU2 V3) chimera", "result": "20.2 ± 2.2", "unit": "µM"}, {"measurement": "IC50", "setting": "[1]; HXBc2 (YU2 V123) chimera", "result": "12.5 ± 1.6", "unit": "µM"}, {"measurement": "cell-cell fusion", "setting": "[2]", "result": "specifically inhibited cell-cell fusion"}, {"measurement": "IC50", "setting": "[3]; read-out: IC50 values of the majority (75%) of CCR5-using HIV-1 isolates", "result": "< 6", "unit": "µM"}, {"measurement": "IC50", "setting": "[3]; read-out: average IC50 for all CCR5-using HIV-1 isolates", "result": 5.7, "unit": "µM"}, {"measurement": "IC50", "setting": "HIV-1MN27", "result": "~25", "unit": "µM"}]}
